Measured values published in US20230087844A1, “USE OF N2-QUINCLINE OR ISOQUINOLINE SUBSTITUTED PURINE DERIVATIVES IN CANCER TREATMENT” (SHANGHAI HUAYU BIOTECHNOLOGY CO., LTD., priority 2020, published 2023).
Marks after values point to notes of the source that are not given here.

Columns and labels:
NCI-H460 = test: MTT tumor cell proliferation, NCI-H460; assay type: cell-based; conditions: Homo sapiens; NCI-H460, Lung cancer, 72 hour
Description: (§1) as an exemplary compound of formula (I), was tested for its inhibitory effect on tumor cell proliferation in a MTT assay.
(§2) Briefly, cells at the log phase were collected, suspended in the cell culture medium at 4*10^4/ml density, and plated in 96-well plates, 90 μl per well. The plates were kept in a 5% CO2 and 37° C. incubator for 2 hours, and then added with 100 μg/ml, 10 μg/ml, 1 μg/ml, 0.1 μg/ml, 0.01 μg/ml or 0.001 μg/ml Compound A, 4 replicates for each cell at each compound concentration. DMSO was used in the positive control group, and another negative group was also set. After 72 hour incubation in the same incubator, 20 μl 5 mg/ml MTT reagent was added to each well. After another 4 hour incubation, each well was added with 100 μl SDS and further incubated for 12 hours. Absorbance at 570 nm was read in a reader, and IC50 was calculated.

MCF-7 = test: MTT tumor cell proliferation, MCF-7; assay type: cell-based; conditions: Homo sapiens, MCF7; MCF-7, Breast cancer, 72 hour
Description: as §1, §2

MV-4-11 cells [1] = test: MV-4-11 AML xenograft in mice, combination with daunorubicin (Example 8); assay type: in vivo, BALB-cA nude mice; conditions: 30 mg/kg P.O., D0-10
Description: Mice body weights and tumor sizes were measured twice a week. The tumor volume, T/C and TGI (Tumor growth inhibition=(average tumor volume in vehicle group-average tumor volume in administration group)/average tumor volume in vehicle group ×100%) were calculated. Mice were sacrificed on Day 21. Female BALB-cA nude mice, 6-7 weeks old, purchased from Shanghai Ling-chang Biotech Co., Ltd, were subcutaneously inoculated with MV-4-11 cells (from ATCC). […] Mice body weights and tumor sizes were measured twice a week. The tumor volume, T/C and tumor volume based TGI were calculated as described above. Mice were sacrificed on Day 11.

leukemia cell lines = test: MTT tumor cell proliferation, leukemia cell lines (summary); assay type: cell-based; conditions: summary of Table 2
Description: as §1, §2

MV-4-11 cells [2] = test: MV-4-11 AML xenograft in mice (Example 7); assay type: in vivo, BALB-cA nude mice; conditions: D0-20; for Complete remission: number of mice, N 6
Description: Mice body weights and tumor sizes were measured twice a week. The tumor volume, T/C and TGI (Tumor growth inhibition=(average tumor volume in vehicle group-average tumor volume in administration group)/average tumor volume in vehicle group ×100%) were calculated. Mice were sacrificed on Day 21.

THP-1 = test: MTT tumor cell proliferation, THP-1; assay type: cell-based; conditions: Homo sapiens; THP-1, Acute monocytic leukemia, 72 hour
Description: as §1, §2

[3] = test system: S180 murine sarcoma cancer cells; test: S180 sarcoma growth in mice; conditions: for TGI: tumor weight, Day 8
Description: On Day 8, the mice were weighed and sacrificed, and the tumors were collected and weighed.
Tumor growth inhibition (TGI) was calculated by the following formula. Tumor growth inhibition=(average tumor weight in vehicle group-average tumor weight in administration group)/average tumor weight in vehicle group×100%

MV-4-11 = test: MTT tumor cell proliferation, MV-4-11; assay type: cell-based; conditions: Homo sapiens, MV4-11; MV-4-11, Acute myeloid leukemia, 72 hour
Description: as §1, §2

H69 = test: Tumor cell death by MTT, H69; assay type: cell-based, human; conditions: 20 nM
Description: The in vitro inhibitory effect of Compound A alone or in combination with a PARP inhibitor on tumor cell growth was tested using human small cell lung cancer (SCLC) cell lines, including H69 (ATCC® HTB-119™), H526 (ATCC® CRL-5811™) and H446 (TCHu196, National Collection of Authenticated Cell Cultures).
Briefly, the cells were seeded into a 96-well dish with RPMI-1640 (10-040-CV, Coming cellgro) containing 10% fetal bovine serum (10270-106, GIBCO), 1% penicillin and 1% streptomycin (BaSalMedia, S110JV), at an initial density of 3×10^3 cells per well ([…]), and cultured at a 37° C., 5% CO2 humidified incubator for 24 hours. Then, the culture media were added with Compound A (final concentration at 20 nM), olaparib (APEXBIO, A4154, a PARP inhibitor, final concentration at 10 μM), Compound A + olaparib (final concentrations at20 nM and 10 μM), or PBS (vehicle), respectively, and the cells were cultured for 48 hours. Then, cell viability was determined by MTT. The test was done in triplicate.
Cell death rate was calculated by the following formula.
Cell death rate=[1−(ODtest-ODvehicle)]×100%
Cell death rates were analyzed using student's t-test, and group differences were deemed statistically significant when the p-value was lower than 0.05. Zheng-Jun Jin's Q value was calculated using the formula Q=EA+B/(EA+EB-EA×EB) to assess the combined effect of Compound A and the PARP inhibitor, wherein EA+B, EA, and EB referred to the cell death rates caused by the combined treatment, Compound A treatment and PARP inhibitor treatment, respectively. A Q value higher than 1.15 meant a synergistic […] effect.
Another PARP inhibitor, rucaparib (APEXBIO, A4156), was tested alone or with Compound A for inhibitory effect on tumor cell growth, following the protocol of Example 9.

SNU-5 = test: MTT tumor cell proliferation, SNU-5; assay type: cell-based; conditions: Homo sapiens; SNU-5, Gastric cancer, 72 hour
Description: as §1, §2

RS 4;11 = test: MTT tumor cell proliferation, RS 4;11; assay type: cell-based; conditions: Homo sapiens, RS4-11; RS 4;11, Acute lymphocytic leukemia, 72 hour
Description: as §1, §2

PI3K β isoform = PI3K β isoform (Homo sapiens, UniProt P42338); conditions: one of the other three isoforms
Sequence of PI3K β isoform (P42338 whole entry, canonical isoform): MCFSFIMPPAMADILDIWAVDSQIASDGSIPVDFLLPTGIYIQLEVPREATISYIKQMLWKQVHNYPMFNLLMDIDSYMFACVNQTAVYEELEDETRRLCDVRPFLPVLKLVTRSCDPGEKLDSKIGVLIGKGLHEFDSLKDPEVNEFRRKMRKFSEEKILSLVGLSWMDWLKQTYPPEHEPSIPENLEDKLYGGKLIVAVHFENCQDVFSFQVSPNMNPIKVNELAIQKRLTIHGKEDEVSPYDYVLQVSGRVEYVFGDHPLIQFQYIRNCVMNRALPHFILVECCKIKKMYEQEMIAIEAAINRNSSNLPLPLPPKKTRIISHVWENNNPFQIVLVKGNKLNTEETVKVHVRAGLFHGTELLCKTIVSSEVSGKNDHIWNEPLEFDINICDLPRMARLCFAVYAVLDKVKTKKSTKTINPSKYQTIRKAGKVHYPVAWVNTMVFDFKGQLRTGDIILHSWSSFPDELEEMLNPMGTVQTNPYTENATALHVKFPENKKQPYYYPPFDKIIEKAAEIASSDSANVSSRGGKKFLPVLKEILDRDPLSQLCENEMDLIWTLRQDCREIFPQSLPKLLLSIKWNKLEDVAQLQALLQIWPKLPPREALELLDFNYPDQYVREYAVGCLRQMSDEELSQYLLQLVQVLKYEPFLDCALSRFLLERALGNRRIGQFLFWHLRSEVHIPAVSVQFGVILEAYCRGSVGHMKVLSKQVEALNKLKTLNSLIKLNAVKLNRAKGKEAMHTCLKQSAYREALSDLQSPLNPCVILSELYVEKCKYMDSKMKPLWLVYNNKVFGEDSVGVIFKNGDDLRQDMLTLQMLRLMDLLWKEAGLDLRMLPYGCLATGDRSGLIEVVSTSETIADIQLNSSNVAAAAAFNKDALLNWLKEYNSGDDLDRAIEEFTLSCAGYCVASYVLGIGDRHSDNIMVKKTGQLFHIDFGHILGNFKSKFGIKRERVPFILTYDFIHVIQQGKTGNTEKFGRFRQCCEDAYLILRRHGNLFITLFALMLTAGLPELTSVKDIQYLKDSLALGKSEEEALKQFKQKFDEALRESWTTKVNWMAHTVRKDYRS
Sequence of PI3K β isoform (P27986 whole entry partner, canonical isoform): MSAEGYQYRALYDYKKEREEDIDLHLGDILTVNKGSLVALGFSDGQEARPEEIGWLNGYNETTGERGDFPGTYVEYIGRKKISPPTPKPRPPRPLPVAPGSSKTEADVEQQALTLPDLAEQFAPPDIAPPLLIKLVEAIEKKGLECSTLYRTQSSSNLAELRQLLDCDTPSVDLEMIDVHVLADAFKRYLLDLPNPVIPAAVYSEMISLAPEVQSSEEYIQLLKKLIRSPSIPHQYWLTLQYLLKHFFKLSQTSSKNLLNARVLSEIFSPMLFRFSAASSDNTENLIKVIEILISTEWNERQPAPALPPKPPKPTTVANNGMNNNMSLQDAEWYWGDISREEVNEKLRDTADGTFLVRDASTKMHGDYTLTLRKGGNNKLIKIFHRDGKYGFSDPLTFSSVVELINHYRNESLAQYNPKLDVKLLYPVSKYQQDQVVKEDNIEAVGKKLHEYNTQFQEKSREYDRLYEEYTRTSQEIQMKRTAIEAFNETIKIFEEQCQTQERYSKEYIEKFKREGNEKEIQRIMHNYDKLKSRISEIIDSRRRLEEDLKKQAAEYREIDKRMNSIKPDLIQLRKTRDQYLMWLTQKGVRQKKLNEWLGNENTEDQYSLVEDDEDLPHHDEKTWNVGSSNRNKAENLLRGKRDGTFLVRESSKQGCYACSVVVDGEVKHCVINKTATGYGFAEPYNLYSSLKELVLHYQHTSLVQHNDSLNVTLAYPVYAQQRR

## c1cnc2ccc(Nc3nc(NC4CC4)c4nc[nH]c4n3)cc2c1 [Compound A]
NCI-H460
  IC50: 4000 ± 400 nM
MCF-7
  IC50: 26500 ± 7700 nM
MV-4-11 cells [1]; D11
  T/C: 71%
  TGI: 29%
MV-4-11 cells [1]; in mm³
  Tumor volume D0: 150.9
  Tumor volume D11: 2076.3
Leukemia cell lines
  IC50: ≤ 1600 nM
MV-4-11 cells [2]; 30 mg/kg P.O.
  T/C (%) D21: 28%
  TGI (%) D21: 72%
  Tumor volume D0: 77.6 ± 3.4 mm^3
  Tumor volume D21: 279.2 ± 71.8 mm^3
  Complete remission: 0
MV-4-11 cells [2]; 60 mg/kg P.O.
  T/C (%) D21: 0%
  TGI (%) D21: 100%
  Tumor volume D0: 79.3 ± 2.6 mm^3
  Tumor volume D21: 76.6 ± 46.2 mm^3
  Complete remission: 3
THP-1
  IC50: 1600 ± 1600 nM
[3]; 60 mg/kg P.O., D1-4
  Tumor weight on Day 8: 0.33 ± 0.13 g
  TGI: 82.8* %
[3]; 80 mg/kg I.V., D1&D4
  Tumor weight on Day 8: 1.10 ± 0.21 g
  TGI: 42.7* %
[3]; 80 mg/kg P.O., D1 &D4
  Tumor weight on Day 8: 1.12 ± 0.34 g
  TGI: 41.7* %
MV-4-11
  IC50: 300 ± 100 nM
H69; 48 hours, Table 10
  Cell Death Rate/% 1: 6.75%
  Cell Death Rate/% 2: 6.48%
  Cell Death Rate/% 3: 6.31%
  Cell Death Rate/% mean: 6.51%
H69; Example 10, Table 11
  Cell Death Rate/% 1: 7.36%
  Cell Death Rate/% 2: 7.65%
  Cell Death Rate/% 3: 7.02%
  Cell Death Rate/% mean: 7.34%
SNU-5
  IC50: 12100 ± 2000 nM
RS 4;11
  IC50: 400 ± 100 nM
PI3K β isoform
  EC50, PI3K β isoform: at the μM level
